Assays:
Format in all cases: in vivo
[1] = test system: Italian ryegrass (Lolium multiflorum); assay: Test A postemergence, visual injury rating
Summary of the method: (§1)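 Pre- and postemergence greenhouse screen. Soil: loam + sand. Spray carrier: solvent mixture, non-phytotoxic, with surfactant. Post timing at 1–2 leaves, height 2–10 cm. Readout: visual injury on a 0–100 scale roughly 10 days after application, untreated plants as reference.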

[2] = test system: barnyardgrass (Echinochloa crus-galli); assay: Test A postemergence, visual injury rating; conditions: 0 is no effect, 100 is complete control; for Barnyardgrass plant response rating: 0 to 100 scale, approximately 10 days
Summary of the method: as §1

[3] = test system: blackgrass (Alopecurus myosuroides); assay: Test A postemergence, visual injury rating
Summary of the method: as §1

[4] = test system: corn (Zea mays); assay: Test A postemergence, visual injury rating
Summary of the method: as §1

[5] = test system: galium (catchweed bedstraw, Galium aparine); assay: Test A postemergence, visual injury rating
Summary of the method: as §1

[6] = test system: giant foxtail (Setaria faberii); assay: Test A postemergence, visual injury rating
Summary of the method: as §1

[7] = test system: kochia (Kochia scoparia); assay: Test A postemergence, visual injury rating
Summary of the method: as §1

[8] = test system: pigweed (Amaranthus retroflexus); assay: Test A postemergence, visual injury rating
Summary of the method: as §1

[9] = test system: ragweed (common ragweed, Ambrosia elatior); assay: Test A postemergence, visual injury rating
Summary of the method: as §1

[10] = test system: wheat (Triticum aestivum); assay: Test A postemergence, visual injury rating
Summary of the method: as §1

[11] = test system: barnyardgrass (Echinochloa crus-galli); assay: Test C postemergence, plant response rating
Description: (§2) Seeds of plant species selected from blackgrass (Alopecurus myosuroides), ryegrass, Italian (Italian ryegrass, Lolium multiflorum), wheat (winter wheat, Triticum aestivum), galium (catchweed bedstraw, Galium aparine), corn (Zea mays), crabgrass, large (large crabgrass, Digitaria sanguinalis), foxtail, giant (giant foxtail, Setaria faberii), johnsongrass (Sorghum halepense), lambsquarters (Chenopodium album), morningglory (Ipomoea coccinea), nutsedge, yellow (yellow nutsedge, Cyperus esculentus), pigweed (Amaranthus retroflexus), ragweed (common ragweed, Ambrosia elatior), soybean (Glycine max), barnyardgrass (Echinochloa crus-galli), oilseed rape (Brassica napus), pigweed, palmer (palmer pigweed, Amaranthus palmeri), waterhemp (common waterhemp, Amaranthus rudis), velvetleaf (Abutilon theophrasti), kochia (Kochia scoparia), surinam grass (Brachiaria decumbens), nightshade (eastern black nightshade, Solanum ptycanthum), wild poinsettia (Euphorbia heterophylla), windgrass (Apera spica-venti), and oat, wild (wild oat Avena fatua), were planted into a blend of loam soil and sand or a silt loam soil and treated preemergence with test chemicals formulated in a non-phytotoxic solvent mixture which included a surfactant.
(§3) At the same time, plants selected from these crop and weed species and also chickweed (common chickweed, Stellaria media), buckwheat, wild (wild buckwheat, Polygonum convolvulus), wild mustard (Sinapis arvensis), field poppy (Papaver rhoeas), field violet (Viola arvensis), geranium, cutleaf (cutleaf geranium, Geranium dissectum), Canada thistle (Cirsium arvense), and speedwell (bird's-eye speedwell, Veronica persica), were planted in pots containing Sunshine Redi-Earth® planting medium comprising spaghnum peat moss, vermiculite, starter nutrients and dolomitic limestone and treated with postemergence applications of test chemicals formulated in the same manner. Plants ranged in height from 2 to 18 cm (1- to 4-leaf stage) for postemergence treatments. Treated plants and controls were maintained in a greenhouse for 13 to 15 d, after which time all species were compared to controls and visually evaluated. Plant response ratings, summarized in Table C, are based on a scale of 0 to 100 where 0 is no effect and 100 is complete control. A dash (-) response means no test result.

[12] = test system: crabgrass, large (large crabgrass, Digitaria sanguinalis); assay: Test C postemergence, plant response rating
Description: as §2, §3

[13] = test system: ryegrass, Italian (Italian ryegrass, Lolium multiflorum); assay: Test C postemergence, plant response rating
Description: as §2, §3

[14] = 31 g ai/ha, 0 to 100 scale, 0 is no effect, 100 is complete control, approximately 10 days
[15] = 125 g ai/ha, 0 to 100 scale, 0 is no effect, 100 is complete control, approximately 10 days
[16] = 62 g ai/ha, scale 0 to 100 (0 no effect, 100 complete control)
[17] = 125 g ai/ha, scale 0 to 100 (0 no effect, 100 complete control)
[18] = 31 g ai/ha, 0 to 100 scale (0 no effect, 100 complete control)

O=C(OCC(F)(F)C(F)(F)F)c1c(Br)cccc1Oc1ncc(Cl)cn1 [Compound 23, 2,2,3,3,3-pentafluoropropyl 2-bromo-6-[(5-chloro-2-pyrimidinyl)oxy]benzoate]
pest or weed control at 125 g/ha ([1]; Lolium multiflorum, post-emergence, 240 h, 125 g ai/ha, 0 is no effect, 100 is complete control, read-out: Ryegrass, Italian plant response rating (0 to 100 scale)): 10% | pest or weed control at 500 g/ha ([1]; Lolium multiflorum, post-emergence, 240 h, 500 g ai/ha, 0 is no effect, 100 is complete control, read-out: Ryegrass, Italian plant response rating (0 to 100 scale)): 70% | pest or weed control at 125 g/ha ([2]; Echinochloa crus-galli, post-emergence, 240 h, 125 g ai/ha, read-out: Barnyardgrass plant response rating (0 to 100 scale)): 10% | pest or weed control at 500 g/ha ([2]; Echinochloa crus-galli, post-emergence, 240 h, 500 g ai/ha, read-out: Barnyardgrass plant response rating (0 to 100 scale)): 50% | pest or weed control at 125 g/ha ([3]; Alopecurus myosuroides, post-emergence, 240 h, 125 g ai/ha, 0 is no effect, 100 is complete control, read-out: Blackgrass plant response rating (0 to 100 scale)): 10% | pest or weed control at 500 g/ha ([3]; Alopecurus myosuroides, post-emergence, 240 h, 500 g ai/ha, 0 is no effect, 100 is complete control, read-out: Blackgrass plant response rating (0 to 100 scale)): 50% | plant injury at 125 g/ha ([4]; Zea mays, post-emergence, 240 h, 125 g ai/ha, 0 is no effect, 100 is complete control, read-out: Corn plant response rating (0 to 100 scale)): 10% | plant injury at 500 g/ha ([4]; Zea mays, post-emergence, 240 h, 500 g ai/ha, 0 is no effect, 100 is complete control, read-out: Corn plant response rating (0 to 100 scale)): 20% | pest or weed control at 125 g/ha ([5]; Galium, post-emergence, 240 h, 125 g ai/ha, 0 is no effect, 100 is complete control, read-out: Galium plant response rating (0 to 100 scale)): 90% | pest or weed control at 500 g/ha ([5]; Galium, post-emergence, 240 h, 500 g ai/ha, 0 is no effect, 100 is complete control, read-out: Galium plant response rating (0 to 100 scale)): 100% | pest or weed control at 125 g/ha ([6]; Setaria faberi, post-emergence, 240 h, 125 g ai/ha, 0 is no effect, 100 is complete control, read-out: Foxtail, Giant plant response rating (0 to 100 scale)): 30% | pest or weed control at 500 g/ha ([6]; Setaria faberi, post-emergence, 240 h, 500 g ai/ha, 0 is no effect, 100 is complete control, read-out: Foxtail, Giant plant response rating (0 to 100 scale)): 80% | pest or weed control at 125 g/ha ([7]; Bassia scoparia, post-emergence, 240 h, 125 g ai/ha, 0 is no effect, 100 is complete control, read-out: Kochia plant response rating (0 to 100 scale)): 80% | pest or weed control at 500 g/ha ([7]; Bassia scoparia, post-emergence, 240 h, 500 g ai/ha, 0 is no effect, 100 is complete control, read-out: Kochia plant response rating (0 to 100 scale)): 100% | pest or weed control at 125 g/ha ([8]; Amaranthus retroflexus, post-emergence, 240 h, 125 g ai/ha, 0 is no effect, 100 is complete control, read-out: Pigweed plant response rating (0 to 100 scale)): 100% | pest or weed control at 500 g/ha ([8]; Amaranthus retroflexus, post-emergence, 240 h, 500 g ai/ha, 0 is no effect, 100 is complete control, read-out: Pigweed plant response rating (0 to 100 scale)): 100% | pest or weed control at 125 g/ha ([9]; Ambrosia artemisiifolia, post-emergence, 240 h, 125 g ai/ha, 0 is no effect, 100 is complete control, read-out: Ragweed plant response rating (0 to 100 scale)): 0% | pest or weed control at 500 g/ha ([9]; Ambrosia artemisiifolia, post-emergence, 240 h, 500 g ai/ha, 0 is no effect, 100 is complete control, read-out: Ragweed plant response rating (0 to 100 scale)): 10% | plant injury at 125 g/ha ([10]; Triticum aestivum, post-emergence, 240 h, 125 g ai/ha, 0 is no effect, 100 is complete control, read-out: Wheat plant response rating (0 to 100 scale)): 0% | plant injury at 500 g/ha ([10]; Triticum aestivum, post-emergence, 240 h, 500 g ai/ha, 0 is no effect, 100 is complete control, read-out: Wheat plant response rating (0 to 100 scale)): 10% | pest or weed control at 16 g/ha ([11]; Echinochloa crus-galli, post-emergence, 16 g ai/ha, scale 0 to 100): 10% | pest or weed control at 31 g/ha ([11]; Echinochloa crus-galli, post-emergence, 31 g ai/ha, scale 0 to 100): 10% | pest or weed control at 62 g/ha ([11]; Echinochloa crus-galli, post-emergence, 62 g ai/ha, scale 0 to 100 (0 no effect, 100 complete control)): 10% | pest or weed control at 125 g/ha ([11]; Echinochloa crus-galli, post-emergence, 125 g ai/ha, scale 0 to 100 (0 no effect, 100 complete control)): 20% | pest or weed control at 16 g/ha ([12]; Digitaria sanguinalis, post-emergence, 16 g ai/ha, scale 0 to 100): 10% | pest or weed control at 31 g/ha ([12]; Digitaria sanguinalis, post-emergence, 31 g ai/ha, scale 0 to 100): 10% | pest or weed control at 62 g/ha ([12]; Digitaria sanguinalis, post-emergence, 62 g ai/ha, scale 0 to 100 (0 no effect, 100 complete control)): 20% | pest or weed control at 125 g/ha ([12]; Digitaria sanguinalis, post-emergence, 125 g ai/ha, scale 0 to 100 (0 no effect, 100 complete control)): 25% | pest or weed control at 16 g/ha ([13]; Lolium multiflorum, post-emergence, 16 g ai/ha, scale 0 to 100): 0% | pest or weed control at 31 g/ha ([13]; Lolium multiflorum, post-emergence, 31 g ai/ha, scale 0 to 100): 0% | pest or weed control at 62 g/ha ([13]; Lolium multiflorum, post-emergence, 62 g ai/ha, scale 0 to 100 (0 no effect, 100 complete control)): 5% | pest or weed control at 125 g/ha ([13]; Lolium multiflorum, post-emergence, 125 g ai/ha, scale 0 to 100 (0 no effect, 100 complete control)): 5%

O=C(CCC(F)(F)C(F)(F)F)c1c(Br)cccc1Oc1ncc(Cl)cn1 [Compound 110]
Ryegrass, Italian plant response rating [1, 14]: 0 | Ryegrass, Italian plant response rating [1, 15]: 20 | Barnyardgrass plant response rating ([2]; 31 g ai/ha): 30 | Barnyardgrass plant response rating ([2]; 125 g ai/ha): 60 | Blackgrass plant response rating [3, 14]: 0 | Blackgrass plant response rating [3, 15]: 50 | Corn plant response rating [4, 14]: 20 | Corn plant response rating [4, 15]: 50 | Galium plant response rating [5, 14]: 70 | Galium plant response rating [5, 15]: 100 | Foxtail, Giant plant response rating [6, 14]: 30 | Foxtail, Giant plant response rating [6, 15]: 90 | Kochia plant response rating [7, 14]: 100 | Kochia plant response rating [7, 15]: 100 | Pigweed plant response rating [8, 14]: 90 | Pigweed plant response rating [8, 15]: 100 | Ragweed plant response rating [9, 14]: 0 | Ragweed plant response rating [9, 15]: 0 | Wheat plant response rating [10, 14]: 0 | Wheat plant response rating [10, 15]: 20 | Plant response rating, Barnyardgrass ([11]; 16 g ai/ha, scale 0 to 100): 10 | Plant response rating, Barnyardgrass ([11]; 31 g ai/ha, scale 0 to 100): 10 | Barnyardgrass plant response rating [11, 16]: 20 | Barnyardgrass plant response rating [11, 17]: 30 | Plant response rating, Crabgrass, Large ([12]; 16 g ai/ha, scale of 0 to 100): 10 | Plant response rating, Crabgrass, Large ([12]; 31 g ai/ha, scale 0 to 100): 20 | Crabgrass, Large plant response rating [12, 16]: 25 | Crabgrass, Large plant response rating [12, 17]: 60 | Plant response rating, Ryegrass, Italian ([13]; 16 g ai/ha, scale of 0 to 100): 5 | Plant response rating, Ryegrass, Italian ([13]; 31 g ai/ha, scale 0 to 100): 10 | Ryegrass, Italian plant response rating [13, 16]: 15 | Ryegrass, Italian plant response rating [13, 17]: 20

FC(F)(F)CCCCc1c(Cl)cccc1Oc1ncc(Cl)cn1 [Compound 137]
Ryegrass, Italian plant response rating [1, 18]: 10 | Ryegrass, Italian plant response rating [1, 15]: 30 | Barnyardgrass plant response rating ([2]; 31 g ai/ha): 20 | Barnyardgrass plant response rating ([2]; 125 g ai/ha): 60 | Blackgrass plant response rating [3, 18]: 10 | Blackgrass plant response rating [3, 15]: 30 | Corn plant response rating [4, 18]: 10 | Corn plant response rating [4, 15]: 10 | Galium plant response rating [5, 18]: 40 | Galium plant response rating [5, 15]: 100 | Foxtail, Giant plant response rating [6, 18]: 10 | Foxtail, Giant plant response rating [6, 15]: 60 | Kochia plant response rating [7, 18]: 90 | Kochia plant response rating [7, 15]: 100 | Pigweed plant response rating [8, 18]: 80 | Pigweed plant response rating [8, 15]: 100 | Ragweed plant response rating [9, 18]: 10 | Ragweed plant response rating [9, 15]: 40 | Wheat plant response rating [10, 18]: 0 | Wheat plant response rating [10, 15]: 10 | Plant response rating, Barnyardgrass ([11]; 16 g ai/ha, scale 0 to 100): 10 | Plant response rating, Barnyardgrass ([11]; 31 g ai/ha, scale 0 to 100): 10 | Barnyardgrass plant response rating [11, 16]: 20 | Barnyardgrass plant response rating [11, 17]: 40 | Plant response rating, Crabgrass, Large ([12]; 16 g ai/ha, scale of 0 to 100): 10 | Plant response rating, Crabgrass, Large ([12]; 31 g ai/ha, scale 0 to 100): 20 | Crabgrass, Large plant response rating [12, 16]: 40 | Crabgrass, Large plant response rating [12, 17]: 70 | Plant response rating, Ryegrass, Italian ([13]; 16 g ai/ha, scale of 0 to 100): 5 | Plant response rating, Ryegrass, Italian ([13]; 31 g ai/ha, scale 0 to 100): 5 | Ryegrass, Italian plant response rating [13, 16]: 5 | Ryegrass, Italian plant response rating [13, 17]: 10

From patent US11053204B2, “Pyrimidinyloxy benzene derivatives as herbicides” (FMC Corporation, priority 2015, dated 2021)
